What all share (assay): Competitive isoTOP-ABPP in situ (fragment-treated cells)
Common to all, as to format: cell-based

Experiment [1] addresses cysteines in MDA-MB-231 and Ramos cells (Homo sapiens, UniProt Q14137).
The target in experiment [2] is T1, cysteines in MDA-MB-231 and Ramos cells (Homo sapiens, UniProt Q96F86).
T1 sequence (Q96F86 1-508): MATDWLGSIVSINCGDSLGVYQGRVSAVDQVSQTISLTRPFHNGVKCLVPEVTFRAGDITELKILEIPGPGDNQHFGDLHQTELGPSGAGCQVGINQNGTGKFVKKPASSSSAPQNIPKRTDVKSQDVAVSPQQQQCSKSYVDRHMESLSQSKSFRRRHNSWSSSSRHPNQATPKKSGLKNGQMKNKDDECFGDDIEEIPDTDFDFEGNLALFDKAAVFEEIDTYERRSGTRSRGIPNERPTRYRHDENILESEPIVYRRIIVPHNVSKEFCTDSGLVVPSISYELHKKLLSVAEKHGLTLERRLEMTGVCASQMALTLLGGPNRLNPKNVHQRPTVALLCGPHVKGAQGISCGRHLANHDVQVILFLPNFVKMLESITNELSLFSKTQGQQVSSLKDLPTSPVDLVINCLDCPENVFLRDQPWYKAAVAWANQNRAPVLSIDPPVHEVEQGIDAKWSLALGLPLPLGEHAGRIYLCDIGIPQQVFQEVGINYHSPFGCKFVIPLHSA

The target in experiment [3] is T2, cysteines in MDA-MB-231 and Ramos cells (Homo sapiens, UniProt Q96P48).
T2 sequence (Q96P48 1-1450): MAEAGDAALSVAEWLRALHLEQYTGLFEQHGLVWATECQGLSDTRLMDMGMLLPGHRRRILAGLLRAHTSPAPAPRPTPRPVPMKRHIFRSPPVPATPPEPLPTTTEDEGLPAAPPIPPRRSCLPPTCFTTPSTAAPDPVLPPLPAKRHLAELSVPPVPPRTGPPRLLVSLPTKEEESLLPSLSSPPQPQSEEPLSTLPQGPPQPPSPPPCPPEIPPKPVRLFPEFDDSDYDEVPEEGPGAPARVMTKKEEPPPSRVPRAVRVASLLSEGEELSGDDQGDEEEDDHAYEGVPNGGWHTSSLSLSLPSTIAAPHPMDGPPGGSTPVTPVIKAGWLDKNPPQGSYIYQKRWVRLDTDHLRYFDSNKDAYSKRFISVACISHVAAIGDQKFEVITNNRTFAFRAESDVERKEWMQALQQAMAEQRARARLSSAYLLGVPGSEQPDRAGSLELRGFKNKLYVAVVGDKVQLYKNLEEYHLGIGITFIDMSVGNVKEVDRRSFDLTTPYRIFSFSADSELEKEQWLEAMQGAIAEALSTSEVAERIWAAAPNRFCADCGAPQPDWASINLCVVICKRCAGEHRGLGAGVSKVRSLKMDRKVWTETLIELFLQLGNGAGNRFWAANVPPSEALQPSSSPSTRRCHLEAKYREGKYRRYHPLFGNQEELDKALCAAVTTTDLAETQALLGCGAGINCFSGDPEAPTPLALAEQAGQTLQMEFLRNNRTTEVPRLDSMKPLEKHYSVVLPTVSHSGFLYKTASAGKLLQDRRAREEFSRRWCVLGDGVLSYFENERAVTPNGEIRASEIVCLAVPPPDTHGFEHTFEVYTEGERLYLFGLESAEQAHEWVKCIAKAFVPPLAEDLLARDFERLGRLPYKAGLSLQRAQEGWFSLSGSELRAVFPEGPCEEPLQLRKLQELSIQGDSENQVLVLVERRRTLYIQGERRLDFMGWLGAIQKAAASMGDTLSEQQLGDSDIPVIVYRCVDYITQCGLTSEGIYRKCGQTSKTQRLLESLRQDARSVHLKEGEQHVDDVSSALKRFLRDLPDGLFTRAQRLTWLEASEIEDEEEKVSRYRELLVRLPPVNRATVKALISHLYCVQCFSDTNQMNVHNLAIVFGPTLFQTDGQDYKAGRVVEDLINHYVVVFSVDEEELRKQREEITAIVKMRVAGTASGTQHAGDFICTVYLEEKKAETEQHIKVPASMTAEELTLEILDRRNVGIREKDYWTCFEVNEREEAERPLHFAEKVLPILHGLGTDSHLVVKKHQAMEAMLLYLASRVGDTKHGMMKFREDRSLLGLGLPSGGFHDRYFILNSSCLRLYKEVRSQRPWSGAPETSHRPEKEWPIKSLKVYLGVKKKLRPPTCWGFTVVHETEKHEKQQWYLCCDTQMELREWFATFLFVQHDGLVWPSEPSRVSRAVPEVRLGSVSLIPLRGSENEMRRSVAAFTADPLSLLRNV
The settings on record: 200 μM, insitu, 231.

Experiment [4] addresses cysteines in MDA-MB-231 and Ramos cells (Homo sapiens, UniProt O75362).
Experiment [5] deals with cysteines in MDA-MB-231 and Ramos cells (Homo sapiens, UniProt Q14790).
cysteines in MDA-MB-231 and Ramos cells (Homo sapiens, UniProt Q14790), sequence (Q14790 217-479): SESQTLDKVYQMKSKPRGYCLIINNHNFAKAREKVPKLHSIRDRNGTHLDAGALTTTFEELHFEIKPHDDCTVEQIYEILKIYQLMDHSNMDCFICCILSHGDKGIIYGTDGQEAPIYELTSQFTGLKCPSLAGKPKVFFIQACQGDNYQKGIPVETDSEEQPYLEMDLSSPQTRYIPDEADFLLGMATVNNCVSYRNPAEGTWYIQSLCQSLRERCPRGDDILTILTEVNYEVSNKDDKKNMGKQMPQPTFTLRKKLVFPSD
Experiment [6] has as its target T3, cysteines in MDA-MB-231 and Ramos cells (Homo sapiens, UniProt Q96C19).
T3 sequence (Q96C19 1-240): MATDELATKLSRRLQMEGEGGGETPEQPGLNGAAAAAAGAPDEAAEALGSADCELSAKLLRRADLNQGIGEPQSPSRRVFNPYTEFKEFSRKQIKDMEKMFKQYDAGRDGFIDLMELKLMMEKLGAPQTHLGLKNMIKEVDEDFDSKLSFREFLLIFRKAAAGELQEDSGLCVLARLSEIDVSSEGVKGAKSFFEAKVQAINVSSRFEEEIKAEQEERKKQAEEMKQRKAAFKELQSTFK

In experiment [7] the target is T4, cysteines in MDA-MB-231 and Ramos cells (Homo sapiens, UniProt Q9NPH0).
T4 sequence (Q9NPH0 33-428): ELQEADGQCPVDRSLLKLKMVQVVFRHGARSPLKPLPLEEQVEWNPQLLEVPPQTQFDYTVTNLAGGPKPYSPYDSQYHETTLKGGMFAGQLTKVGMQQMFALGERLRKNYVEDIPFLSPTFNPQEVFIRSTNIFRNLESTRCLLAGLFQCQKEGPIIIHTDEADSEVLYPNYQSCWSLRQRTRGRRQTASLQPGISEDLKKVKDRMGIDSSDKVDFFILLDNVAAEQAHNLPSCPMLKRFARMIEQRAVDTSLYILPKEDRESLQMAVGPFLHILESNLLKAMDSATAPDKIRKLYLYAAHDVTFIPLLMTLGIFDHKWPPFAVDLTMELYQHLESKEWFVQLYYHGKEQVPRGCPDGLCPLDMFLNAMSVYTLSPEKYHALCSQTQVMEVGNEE

The target in experiment [8] is cysteines in MDA-MB-231 and Ramos cells (Homo sapiens, UniProt P52948). The settings on record: 200 μM, insitu, 231.
cysteines in MDA-MB-231 and Ramos cells (Homo sapiens, UniProt P52948), sequence (P52948 whole entry): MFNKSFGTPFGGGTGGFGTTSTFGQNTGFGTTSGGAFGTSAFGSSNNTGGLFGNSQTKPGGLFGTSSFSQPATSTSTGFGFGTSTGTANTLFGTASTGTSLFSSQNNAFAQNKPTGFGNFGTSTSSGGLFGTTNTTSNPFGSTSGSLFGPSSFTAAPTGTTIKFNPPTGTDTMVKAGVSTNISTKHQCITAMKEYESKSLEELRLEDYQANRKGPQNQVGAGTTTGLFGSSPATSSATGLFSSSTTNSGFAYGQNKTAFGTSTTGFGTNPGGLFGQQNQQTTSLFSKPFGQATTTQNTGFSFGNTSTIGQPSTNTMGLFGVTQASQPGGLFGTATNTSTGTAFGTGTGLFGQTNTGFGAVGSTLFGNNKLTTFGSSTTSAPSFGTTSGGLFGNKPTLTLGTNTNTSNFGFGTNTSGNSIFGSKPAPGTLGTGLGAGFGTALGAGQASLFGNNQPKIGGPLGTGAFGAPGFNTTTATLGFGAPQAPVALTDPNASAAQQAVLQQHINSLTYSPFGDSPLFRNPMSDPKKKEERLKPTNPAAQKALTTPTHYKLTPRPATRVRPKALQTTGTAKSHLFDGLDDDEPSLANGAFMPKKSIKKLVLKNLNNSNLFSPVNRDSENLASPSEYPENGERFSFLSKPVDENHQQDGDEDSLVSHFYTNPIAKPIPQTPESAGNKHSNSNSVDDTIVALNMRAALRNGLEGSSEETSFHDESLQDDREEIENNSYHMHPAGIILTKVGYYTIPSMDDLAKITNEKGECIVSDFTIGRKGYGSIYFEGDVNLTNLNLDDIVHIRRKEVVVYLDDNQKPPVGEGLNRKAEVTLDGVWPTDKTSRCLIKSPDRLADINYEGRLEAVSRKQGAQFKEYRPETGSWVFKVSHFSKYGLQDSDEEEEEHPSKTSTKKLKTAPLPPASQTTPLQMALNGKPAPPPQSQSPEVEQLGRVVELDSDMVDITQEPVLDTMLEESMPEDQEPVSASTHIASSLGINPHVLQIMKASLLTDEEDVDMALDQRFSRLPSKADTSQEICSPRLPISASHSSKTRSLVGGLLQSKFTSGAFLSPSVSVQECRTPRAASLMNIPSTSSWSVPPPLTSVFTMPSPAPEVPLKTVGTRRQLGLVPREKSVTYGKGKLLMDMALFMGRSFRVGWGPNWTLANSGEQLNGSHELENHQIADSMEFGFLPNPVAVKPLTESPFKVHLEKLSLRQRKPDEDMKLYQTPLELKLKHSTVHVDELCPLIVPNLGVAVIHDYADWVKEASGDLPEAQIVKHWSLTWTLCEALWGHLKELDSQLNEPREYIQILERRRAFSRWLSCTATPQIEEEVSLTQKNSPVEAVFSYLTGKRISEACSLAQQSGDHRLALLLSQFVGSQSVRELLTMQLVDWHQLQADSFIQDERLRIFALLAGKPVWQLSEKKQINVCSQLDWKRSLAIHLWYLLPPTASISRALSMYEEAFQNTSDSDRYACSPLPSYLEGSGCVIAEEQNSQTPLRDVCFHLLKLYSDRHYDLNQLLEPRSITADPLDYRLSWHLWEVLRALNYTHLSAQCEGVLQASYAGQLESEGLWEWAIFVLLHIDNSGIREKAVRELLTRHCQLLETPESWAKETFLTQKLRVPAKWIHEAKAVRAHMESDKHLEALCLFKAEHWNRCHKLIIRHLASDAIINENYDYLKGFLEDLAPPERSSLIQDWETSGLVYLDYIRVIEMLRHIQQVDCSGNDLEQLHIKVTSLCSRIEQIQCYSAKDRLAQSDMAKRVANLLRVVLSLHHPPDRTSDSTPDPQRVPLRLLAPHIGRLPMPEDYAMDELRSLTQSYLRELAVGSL

cysteines in MDA-MB-231 and Ramos cells (Homo sapiens, UniProt O75362), sequence (O75362 whole entry): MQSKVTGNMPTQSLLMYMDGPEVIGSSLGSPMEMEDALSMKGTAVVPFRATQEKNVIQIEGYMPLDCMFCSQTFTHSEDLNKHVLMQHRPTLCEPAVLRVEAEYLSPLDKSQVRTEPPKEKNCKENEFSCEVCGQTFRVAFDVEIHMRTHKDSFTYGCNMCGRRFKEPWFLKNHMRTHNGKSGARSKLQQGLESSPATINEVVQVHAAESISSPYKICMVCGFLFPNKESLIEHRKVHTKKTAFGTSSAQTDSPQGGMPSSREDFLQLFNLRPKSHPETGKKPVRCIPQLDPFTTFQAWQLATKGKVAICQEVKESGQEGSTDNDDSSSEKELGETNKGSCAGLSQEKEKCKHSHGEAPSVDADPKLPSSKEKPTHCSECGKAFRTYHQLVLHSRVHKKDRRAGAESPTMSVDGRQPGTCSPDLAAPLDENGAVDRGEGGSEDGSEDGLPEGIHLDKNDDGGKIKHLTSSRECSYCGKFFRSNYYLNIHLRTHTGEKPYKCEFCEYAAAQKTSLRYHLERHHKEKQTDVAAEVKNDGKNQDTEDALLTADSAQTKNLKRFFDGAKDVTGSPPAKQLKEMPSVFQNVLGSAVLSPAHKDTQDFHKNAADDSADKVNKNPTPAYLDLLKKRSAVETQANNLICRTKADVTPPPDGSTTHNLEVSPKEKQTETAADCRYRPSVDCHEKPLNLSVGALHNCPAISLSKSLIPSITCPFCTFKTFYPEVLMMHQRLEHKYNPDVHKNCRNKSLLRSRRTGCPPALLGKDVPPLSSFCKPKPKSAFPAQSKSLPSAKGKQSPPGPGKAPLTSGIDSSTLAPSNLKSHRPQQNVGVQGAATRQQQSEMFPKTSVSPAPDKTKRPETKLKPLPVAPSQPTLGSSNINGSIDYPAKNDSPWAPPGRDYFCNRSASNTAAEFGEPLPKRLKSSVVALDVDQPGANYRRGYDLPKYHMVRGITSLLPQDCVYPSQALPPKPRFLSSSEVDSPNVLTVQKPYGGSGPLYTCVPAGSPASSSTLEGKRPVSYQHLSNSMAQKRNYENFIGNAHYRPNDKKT
cysteines in MDA-MB-231 and Ramos cells (Homo sapiens, UniProt Q14137), sequence (Q14137 whole entry): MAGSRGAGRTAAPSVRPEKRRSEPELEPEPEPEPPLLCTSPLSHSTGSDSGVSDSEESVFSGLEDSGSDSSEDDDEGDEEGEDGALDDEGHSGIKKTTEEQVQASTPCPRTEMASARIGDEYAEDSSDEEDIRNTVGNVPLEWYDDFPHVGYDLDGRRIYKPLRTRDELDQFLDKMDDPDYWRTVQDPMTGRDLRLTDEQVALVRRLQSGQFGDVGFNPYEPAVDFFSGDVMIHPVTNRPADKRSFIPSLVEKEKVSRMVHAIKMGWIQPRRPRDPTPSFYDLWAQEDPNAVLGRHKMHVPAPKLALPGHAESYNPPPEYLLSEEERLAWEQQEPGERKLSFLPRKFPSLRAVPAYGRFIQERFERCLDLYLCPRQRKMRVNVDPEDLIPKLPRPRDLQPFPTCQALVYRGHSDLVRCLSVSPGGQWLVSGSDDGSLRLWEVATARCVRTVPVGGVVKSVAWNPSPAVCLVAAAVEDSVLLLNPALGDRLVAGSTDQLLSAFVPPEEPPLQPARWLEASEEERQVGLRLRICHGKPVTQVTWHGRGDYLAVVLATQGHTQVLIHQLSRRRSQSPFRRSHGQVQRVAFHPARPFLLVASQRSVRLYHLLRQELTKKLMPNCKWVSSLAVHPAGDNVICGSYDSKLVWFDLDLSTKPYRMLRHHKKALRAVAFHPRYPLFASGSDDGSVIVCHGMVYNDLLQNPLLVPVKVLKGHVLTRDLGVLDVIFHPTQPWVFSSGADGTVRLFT

Consider `COc1ccc2c(c1)CCCN2C(=O)CCl` [compound 2], for which, in experiment [1] (200 μM, insitu, 231), the “isoTOP-ABPP reactivity Q14137_C404 BOP1” value was found to be 20.0. For the same compound, the “isoTOP-ABPP reactivity Q96F86_C413 EDC3” value in experiment [2] (200 μM, insitu, 231) was found to be 20.0. In addition, the “isoTOP-ABPP reactivity Q96P48_C900 ARAP1” value in experiment [3] turned out to be 5.5. Also, in experiment [4] (200 μM, insitu, 231), the “isoTOP-ABPP reactivity O75362_C286 ZNF217” value worked out at 8.9. For the same compound, the “isoTOP-ABPP reactivity Q14790_C360 CASP8” value in experiment [5] (200 μM, insitu, 231) was 20.0.

Consider `COc1ccc(C2CC(c3cccs3)=NN2C(=O)CCl)cc1` (stereo not shown) [compound 4], for which the “isoTOP-ABPP reactivity Q14137_C404 BOP1” value in experiment [1] (100 μM in situ 231) worked out at 1.2. Also, the “isoTOP-ABPP reactivity Q96C19_C172 EFHD2” value in experiment [6] (100 μM in situ 231) came out at 5.3. Further, the “isoTOP-ABPP reactivity Q96F86_C413 EDC3” value in experiment [2] (100 μM in situ 231) is on record as 20.0. Also, the “isoTOP-ABPP reactivity Q9NPH0_C267 ACP6” value in experiment [7] (100 μM in situ 231) came to 20.0. For the same compound, the “isoTOP-ABPP reactivity Q14790_C360 CASP8” value in experiment [5] (100 μM in situ 231) is 20.0.

As for `COc1cc2c(cc1OC)CN(C(=O)CCl)CC2` [compound 8], the “isoTOP-ABPP reactivity Q9NPH0_C267 ACP6” value in experiment [7] (200 μM, insitu, 231) came to 20.0.

Take `O=C(CCl)N1CCC(Cc2ccccc2)CC1` [compound 9]: in experiment [6] (200 μM, insitu, 231), the “isoTOP-ABPP reactivity Q96C19_C172 EFHD2” value came to 2.8.

Take `O=C(CCl)N1CCN(S(=O)(=O)c2ccccc2F)CC1` [compound 10]: the “isoTOP-ABPP ratio, cysteine P52948_C1312” value in experiment [8] amounted to 20.0. The “isoTOP-ABPP ratio, cysteine Q14137_C404” value in experiment [1] (200 μM, insitu, 231) is listed as 20.0. Besides, the “isoTOP-ABPP ratio Q96C19_C172” value in experiment [6] (200 μM, insitu, 231) is 2.4. Moreover, the “isoTOP-ABPP ratio Q96F86_C413” value was determined as 20.0 in experiment [2] (200 μM, insitu, 231) and 20.0 in experiment [2] (200 μM, insitu, ramos). Moreover, in experiment [3], the “isoTOP-ABPP ratio, cysteine Q96P48_C900” value is 1.8. The “isoTOP-ABPP ratio O75362_C286” value in experiment [4] (200 μM, insitu, 231) turned out to be 2.6. Further, the “isoTOP-ABPP ratio, cysteine Q9NPH0_C267” value in experiment [7] (200 μM, insitu, 231) amounted to 13.4. Further, in experiment [5] (200 μM, insitu, ramos), the “isoTOP-ABPP ratio Q14790_C360” value turned out to be 5.8.

For `Cn1cc(S(=O)(=O)N2CCOCC2)cc1C(=O)NC(=O)CCl` [compound 11], the “isoTOP-ABPP ratio Q96C19_C172” value in experiment [6] (100 μM in situ 231) stood at 0.9. For the same compound, the “isoTOP-ABPP ratio Q96F86_C413” value in experiment [2] (100 μM in situ 231) is 20.0. Besides, the “isoTOP-ABPP ratio O75362_C286” value in experiment [4] (100 μM in situ 231) came to 1.0.

As for `O=C(CCl)NC(=O)NC12CC3CC(CC(C3)C1)C2` [compound 12], the “isoTOP-ABPP ratio, cysteine P52948_C1312” value in experiment [8] is on record as 20.0. Also, the “isoTOP-ABPP ratio Q96C19_C172” value in experiment [6] (200 μM, insitu, 231) was found to be 0.9. For the same compound, the “isoTOP-ABPP ratio, cysteine Q96P48_C900” value in experiment [3] is 1.9. Moreover, in experiment [4] (200 μM, insitu, 231), the “isoTOP-ABPP ratio O75362_C286” value was 20.0.

On to `O=C(CCl)NCCc1c[nH]c2ccccc12` [compound 13], for which the “isoTOP-ABPP ratio, cysteine P52948_C1312” value in experiment [8] stood at 1.2. Also, the “isoTOP-ABPP ratio, cysteine Q14137_C404” value in experiment [1] (200 μM, insitu, 231) was 1.1. Besides, in experiment [6] (200 μM, insitu, 231), the “isoTOP-ABPP ratio Q96C19_C172” value turned out to be 0.7. Moreover, the “isoTOP-ABPP ratio Q96F86_C413” value in experiment [2] (200 μM, insitu, 231) came out at 1.6; in experiment [2] (200 μM, insitu, ramos) it was 2.0. Also, in experiment [3], the “isoTOP-ABPP ratio, cysteine Q96P48_C900” value came out at 1.2. For the same compound, the “isoTOP-ABPP ratio O75362_C286” value in experiment [4] (200 μM, insitu, 231) came to 1.1; in experiment [4] (200 μM, insitu, ramos) it was 20.0. For the same compound, in experiment [5] (200 μM, insitu, 231), the “isoTOP-ABPP ratio Q14790_C360” value is recorded as 1.2.

These data come from patent US10670605B2, “Cysteine reactive probes and uses thereof” (The Scripps Research Institute, priority 2015, dated 2020).
